Tests used:
[1] = biological target: T1, ghrelin receptor (HEK-GHSR1 stable cells) (Homo sapiens, UniProt Q92847); experiment: Ghrelin receptor inverse agonist assay (HTRF IP-one), Method B4; format: cell-based; conditions: inverse agonist at the ghrelin receptor, Method B4
T1 construct: expressed in transfected cells
From the text: B4. Ghrelin Receptor Inverse Agonist Assay […]
In addition, the following method can be utilized to assay for inverse agonist activity. (Thomsen, W.; et al. Curr. Opin. Biotechnol. 2005, 16, 655-665; Tozawa-Takahashi F; et al., 11th SBS Annual Conference. September 2005, Geneva; Trinquet, E.; Fink, M.; Bazin, H.; et al. Anal. Biochem. 2006, 358, 126-135; Bergsdorf, C.; Kropp-Goerkis, C.; Kaehler, I.; Ketscher, L.; Boerner, U.; Parczyk, K.; Bader, B. Assay Drug Dev. Technol. 2008, 6, 39-53.)
• 1. Remove culture medium from the plate by inversion. • 2. Add 70 μl of compound/well. • 3. Incubate 30 min at 37° C. • 4. Stop the reaction by adding 15 μl of lysis buffer/well. • 5. Add 15 μl of d2/well. • 6. Add 15 μl of Anti-IP1 cryptate/well. • 7. Incubate 1 h at room temp on an orbital shaker at 100 RPM. • 8. Read the fluorescence in a plate reader (Tecan GeniosPro or similar)
The above sequence was performed using the HTRF IP-one kit (CisBio cat#62P1APEC). For the simultaneous assay of multiple test compounds, 96-well plates can be utilized in this assay (white plate with flat-bottom well, Falcon #353296). These were seeded overnight with 100 000 of HEK-GHSR1 stable cells/well. • Wells A1 and A2 of each plate are used as negative control (wells without d2). Compounds are typically tested in replicate at the following concentrations:
Compounds are stored at 10 mM in 100% DMSO.
1st dilution 1/10 in 100% DMSO (1 mM final concentration).
2nd dilution 1/10 in H2O (0.1 mM final concentration).
Other dilutions are performed in a 96-well plate in stimulation buffer.
The results for representative compounds of the invention are provided in the Examples.

[2] = biological target: T2, human ghrelin receptor (GRLN, growth hormone secretagogue receptor, hGHS-R1a) (Homo sapiens, UniProt Q92847); experiment: Competitive radioligand binding assay (ghrelin receptor), Method B1; conditions: Ghrelin receptor binding activity, Method B1
T2 construct: purchased PerkinElmer BioSignal #RBHGHSM, lot#1887; host or cells: HEK-293 cells, stably transfected (membranes)
T2 sequence (Q92847 whole entry): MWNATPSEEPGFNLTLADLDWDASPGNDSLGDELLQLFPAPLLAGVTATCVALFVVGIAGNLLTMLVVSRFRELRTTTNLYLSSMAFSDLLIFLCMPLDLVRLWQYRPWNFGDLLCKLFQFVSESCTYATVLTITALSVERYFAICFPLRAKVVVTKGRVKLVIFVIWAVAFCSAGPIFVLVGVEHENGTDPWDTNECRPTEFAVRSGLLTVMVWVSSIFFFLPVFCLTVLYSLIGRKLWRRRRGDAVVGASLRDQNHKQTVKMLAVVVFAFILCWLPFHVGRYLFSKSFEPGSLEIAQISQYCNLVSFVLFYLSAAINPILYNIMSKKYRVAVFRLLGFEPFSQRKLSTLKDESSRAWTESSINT
Procedure: Multiscreen Harvest plates-GF/C (Millipore, #MAHFC1H60) • 4. […] Bottom seal (Millipore, #MATAH0P00) • 7. […] Binding Buffer: 25 mM Hepes (pH 7.4), 1 mM CaCl2, 5 mM MgCl2. 2.5 mM EDTA, 0.4% BSA
Competition experiments were performed in a 300 μl filtration assay format. • 1. 220 μL of membranes diluted in binding buffer • 2. 40 μL of compound diluted in binding buffer • 3.
Compounds were provided frozen on dry ice at a stock concentration of 10 mM diluted in 100% DMSO and stored at −80° C. until the day of testing. On the test day, compounds were allowed to thaw at rt overnight and then diluted in assay buffer according to the desired test concentrations. Under these conditions, the maximal final DMSO concentration in the assay was 0.1%.
Plates were sealed with TopSeal-A, vortexed gently and incubated at rt for 30 min. The reaction was arrested by filtering samples through Multiscreen Harvest plates (pre-soaked in 0.5% polyethyleneimine) using a Tomtec Harvester, washed 9 times with 500 μL of cold 50 mM Tris-HCl (pH 7.4, 4° C.), and then plates were air-dried in a fumehood for 30 min. A bottom seal was applied to the plates prior to the addition of 25 μL of MicroScint-0 to each well. Plates were than sealed with TopSeal-A and counted for 30 sec per well on a TopCount Microplate Scintillation and Luminescence Counter (PerkinElmer) using a count delay of 60 sec. Results were expressed as counts per minute (cpm).
Data were analyzed by GraphPad Prism (GraphPad Software, San Diego, Calif.) using a variable slope non-linear regression analysis. […] Dmax values were calculated using the following formula: […]

T1 sequence (Q92847 whole entry): as above

Compound	IC50 [1] [µM]	IC50 [2] [µM]
CC(O)[C@H]1C(=O)N[C@H](Cc2ccc(Cl)cc2)C(=O)NC/C=C/c2ccccc2OCCN[C@@H](C2CCCCC2)C(=O)N1C (stereo partly shown) [Compound 1710]	0.1 to 0.5	0.01 to 0.1
CC(O)[C@H]1C(=O)N[C@H](Cc2ccc(F)cc2)C(=O)N[C@H](C)CCc2ccccc2OCCN[C@@H](C2CCCCC2)C(=O)N1C (stereo partly shown) [Compound 1743]	0.1 to 0.5	0.01 to 0.1
CC(O)[C@H]1C(=O)N[C@H](Cc2ccc(Cl)cc2)C(=O)NC/C=C/c2ccccc2OCCN[C@@H](C(C)(C)C)C(=O)N1C (stereo partly shown) [Compound 1768]	0.01 to 0.05	0.01 to 0.1
CCC(C)C1NCCOc2ccccc2C=CCNC(=O)C(Cc2ccccc2OC)NC(=O)C(C(C)O)N(C)C1=O (stereo not shown) [Compound 1795]	0.1 to 0.5	0.001 to 0.01
CC1CCc2ccccc2OCCNC(C(C)(C)C)C(=O)N(C)C(C(C)O)C(=O)NC(Cc2cccc(F)c2)C(=O)N1 (stereo not shown) [Compound 1796]	0.01 to 0.05	0.001 to 0.01
CC(O)C1C(=O)NC(Cc2ccccc2)C(=O)NCC2CCc3cccc(c3C2)OCCNC(C2CCCCC2)C(=O)N1C (stereo not shown) [Compound 1797]	0.1 to 0.5	0.01 to 0.1
CCC(C)C1NCCOc2cccc3c2CC(CC3)CNC(=O)C(Cc2ccccc2)NC(=O)C(C(C)O)N(C)C1=O (stereo not shown) [Compound 1798]	0.1 to 0.5	0.001 to 0.01
Cc1ccc2[nH]cc(CC3NC(=O)C(C(C)O)N(C)C(=O)C(C(C)C)NCCOc4ccccc4CCC(C)NC3=O)c2c1 (stereo not shown) [Compound 1802]	0.01 to 0.05	0.001 to 0.01
CC(C)C1NCCOc2cccc(F)c2C=CCNC(=O)C(C(C)c2ccccc2)NC(=O)C(C(C)O)N(C)C1=O (stereo not shown) [Compound 1811]	0.1 to 0.5	0.01 to 0.1
CCC1CCc2ccc(Cl)cc2OCCNC(C(C)C)C(=O)N(C)C(C(C)O)C(=O)NC(Cc2ccccc2)C(=O)N1 (stereo not shown) [Compound 1813]	0.1 to 0.5	0.1 to 0.5
CCC1CCc2ccc(Cl)cc2OCCNC(C(C)C)C(=O)N(C)C(C(C)O)C(=O)NC(Cc2cccc(F)c2)C(=O)N1 (stereo not shown) [Compound 1814]	0.1 to 0.5	0.1 to 0.5
CCC1CCc2ccc(F)cc2OCCNC(C(C)C)C(=O)N(C)C(C(C)O)C(=O)NC(Cc2ccco2)C(=O)N1 (stereo not shown) [Compound 1824]	0.1 to 0.5	0.01 to 0.1
CCC(C)C1NCCOc2ccccc2C=CCNC(=O)C(Cc2c[nH]c3ccc(F)cc23)NC(=O)C(C(C)O)N(C)C1=O (stereo not shown) [Compound 1827]	0.1 to 0.5	0.01 to 0.1
CCC1CCc2ccc(F)cc2OCCNC(CC)C(=O)N(C)C(C(C)O)C(=O)NC(Cc2c[nH]c3ccccc23)C(=O)N1 (stereo not shown) [Compound 1853]	0.1 to 0.5	0.01 to 0.1
